In brackets after ≈: the same amount, converted by molar mass. Read-outs that look alike come from different tables or passages of the source. Square brackets hold non-standard residues; d marks the D form. Peptide text beside a SMILES is read from it.
Tested on: A. baumannii
Type: cell-based
Text: Broth dilution methods are e.g., described by Lorian (2007) In: Antibiotics in Laboratory Medicine, Fifth Edition; and In: Clinical and Laboratory Standards Institute, CLSI (formerly NCCLS), In: Methods for Dilution Antimicrobial Susceptibility Tests for Bacteria that Grow Aerobically—Approved Standard—Seventh Edition, CLSI document M7-A7, Villanova, Pa. (NCCLS; January 2006; Vol. 26 No. 2); and In: Clinical and Laboratory Standards Institute, CLSI (formerly NCCLS), Performance Standards for Antimicrobial Susceptibility Testing, Seventeenth Informational Supplement, M100-S17, Vol 27 No. 1 January 2007, all of which are incorporated herein by reference.
The present inventors used such methods to quantitate activity in vitro of antimicrobial peptides of the invention against bacterial isolates, including laboratory strains and 50 clinical isolates of A. baumannii, and S. aureus ATCC Accession No. 2992. Briefly, small volumes of broth are dispensed in sterile, plastic microtiter trays, and 100 μl of serially-diluted antimicrobial peptide (0.1-64 μg) and 100 μl test organism (approximately 1×10^5 C.F.U.), are added. Following aerobic incubation overnight at 35±2° C. Control samples lacked peptide (Growth control), or lacked peptide and bacteria (Sterility control). The trays were examined visually and the minimal inhibitory concentration (MIC) of peptide required to inhibit bacterial growth were determined. The minimum bactericidal concentration (MBC) was estimated by sub-culturing the wells for which no bacterial growth was visible to the naked eye, to thereby determine a concentration of antimicrobial that reduces the original inoculum by at least about 99.9%.

[1] = A. baumannii (Table 8), reduces original inoculum by at least about 99.9%

MIC [µM]	MIC (μM) for non-amidated Peptide [µM]	Structure (SMILES)	MBC [µM]	further results
30 (≈ 81.4 µg/mL)	–	CC[C@H](C)[C@H](NC(=O)[C@H](CS)NC(=O)[C@H](CS)NC(=O)[C@H](CCCNC(=N)N)NC(=O)[C@H](CC(=O)O)NC(=O)[C@H](CO)NC(=O)[C@H](CC(C)C)NC(=O)[C@H](CCCNC(=N)N)NC(=O)[C@H](CCCNC(=N)N)NC(=O)[C@H](CC(C)C)NC(=O)[C@H](Cc1ccccc1)NC(=O)CNC(=O)[C@H](CO)NC(=O)[C@@H]1CCCN1C(=O)[C@H](Cc1c[nH]c2ccccc12)NC(=O)[C@@H](NC(=O)[C@@H]1CCCN1)C(C)C)C(=O)N[C@@H](Cc1c[nH]cn1)C(=O)N[C@@H](CO)C(=O)N[C@@H](CCCNC(=N)N)C(=O)N[C@@H](CCC(N)=O)C(=O)N[C@@H](C)C(=O)N[C@@H](CCC(N)=O)C(=O)O [Ac329] (H-PVWPSGFLRRLSDRCCIHSRQAQ-OH; N-terminus and C-terminus assumed)	39 (≈ 106 µg/mL)	–
30 (≈ 76.1 µg/mL)	–	CC(C)C[C@H](NC(=O)CNC(=O)[C@H](CS)NC(=O)[C@H](CO)NC(=O)CNC(=O)[C@H](CCCNC(=N)N)NC(=O)[C@H](CS)NC(=O)[C@H](CCCCN)NC(=O)[C@H](CO)NC(=O)[C@H](CC(C)C)NC(=O)[C@@H](NC(=O)[C@H](CC(N)=O)NC(=O)[C@H](CS)NC(=O)[C@H](C)NC(=O)[C@H](CCCNC(=N)N)NC(=O)[C@H](Cc1c[nH]c2ccccc12)NC(=O)[C@H](CCCNC(=N)N)NC(=O)[C@H](Cc1c[nH]c2ccccc12)NC(=O)CNC(=O)[C@H](C)NC(=O)CN)[C@@H](C)O)C(=O)N[C@@H](CCCNC(=N)N)C(=O)N[C@H](C(=O)O)C(C)C [Ac379] (H-GAGWRWRACNTLSKCRGSCGLRV-OH; N-terminus and C-terminus assumed)	39 (≈ 99 µg/mL)	–
20 (≈ 54.2 µg/mL)	20	CC[C@H](C)[C@H](NC(=O)[C@H](CCC(N)=O)NC(=O)[C@H](CCCNC(=N)N)NC(=O)[C@H](CS)NC(=O)[C@@H](NC(=O)[C@H](CCCNC(=N)N)NC(=O)[C@H](CCCNC(=N)N)NC(=O)[C@H](CC(C)C)NC(=O)[C@H](CC(=O)O)NC(=O)[C@H](CCC(=O)O)NC(=O)[C@H](CCCNC(=N)N)NC(=O)[C@H](CC(C)C)NC(=O)[C@H](CCCNC(=N)N)NC(=O)CNC(=O)[C@H](CO)NC(=O)[C@H](Cc1ccccc1)NC(=O)[C@@H](NC(=O)[C@H](CC(C)C)NC(=O)[C@@H](NC(=O)CN)C(C)C)[C@@H](C)O)[C@@H](C)CC)C(=O)N[C@@H](CO)C(=O)N[C@@H](C)C(=O)N[C@@H](Cc1ccc(O)cc1)C(=O)O [Ac339] (H-GVLTFSGRLREDLRRICRQISAY-OH; N-terminus and C-terminus assumed)	40 (≈ 108 µg/mL)	–
40 (≈ 116 µg/mL)	–	CC[C@H](C)[C@H](NC(=O)[C@H](Cc1c[nH]c2ccccc12)NC(=O)[C@H](CCCNC(=N)N)NC(=O)[C@@H](N)CO)C(=O)N[C@@H](CS)C(=O)N[C@@H](CO)C(=O)N[C@@H](CCSC)C(=O)N[C@@H](C)C(=O)N[C@@H](CCCNC(=N)N)C(=O)N[C@@H](CCCNC(=N)N)C(=O)N[C@@H](CO)C(=O)N[C@@H](CCCNC(=N)N)C(=O)N[C@@H](CCCNC(=N)N)C(=O)N[C@@H](CCCNC(=N)N)C(=O)N[C@@H](CCCNC(=N)N)C(=O)N1CCC[C@H]1C(=O)NCC(=O)N[C@@H](CCCNC(=N)N)C(=O)N[C@@H](CO)C(=O)N[C@H](C(=O)N[C@@H](CCCNC(=N)N)C(=O)N[C@@H](CO)C(=O)N[C@@H](Cc1c[nH]c2ccccc12)C(=O)O)[C@@H](C)O [Ac390] (H-SRWICSMARRSRRRRPGRSTRSW-OH; N-terminus and C-terminus assumed)	40 (≈ 116 µg/mL)	–
–	15	CC(C)C[C@@H](NC(=O)[C@@H](CCCNC(=N)N)NC(=O)[C@H](N)Cc1ccc(O)cc1)C(=O)N[C@H](CC(C)C)C(=O)N[C@H](CCCNC(=N)N)C(=O)N[C@H](CCCCN)C(=O)N[C@@H](C(=O)N[C@@H](C(=O)N[C@H](Cc1ccccc1)C(=O)N[C@H](CS)C(=O)N[C@H](CC(C)C)C(=O)N[C@H](CCCCN)C(=O)N[C@@H](C(=O)N[C@H](CO)C(=O)N[C@H](CC(C)C)C(=O)N[C@@H](C(=O)N[C@H](CCCCN)C(=O)N1CCC[C@@H]1C(=O)N[C@H](Cc1ccccc1)C(=O)N[C@H](Cc1c[nH]cn1)C(=O)N[C@H](Cc1ccccc1)C(=O)N[C@H](Cc1ccc(O)cc1)C(=O)N1CCC[C@@H]1C(=O)O)[C@H](C)O)[C@H](C)O)[C@H](C)O)[C@H](C)O [Ac5r] (H-[dY][dR][dL][dL][dR][dK][dT][dT][dF][dC][dL][dK][dT][dS][dL][dT][dK][dP][dF][dH][dF][dY][dP]-OH; N-terminus and C-terminus assumed)	–	MIC (μM) for amidated peptide: 5 µM
–	–	CSCC[C@H](NC(=O)[C@H](CC(C)C)NC(=O)[C@H](CCCCN)NC(=O)[C@H](CCCCN)NC(=O)[C@@H](NC(=O)[C@@H](NC(=O)[C@H](C)NC(=O)[C@H](Cc1ccccc1)NC(=O)[C@H](Cc1ccc(O)cc1)NC(=O)CNC(=O)[C@H](CS)NC(=O)[C@H](Cc1c[nH]cn1)NC(=O)[C@@H]1CCCN1C(=O)CNC(=O)CN)[C@@H](C)O)[C@@H](C)O)C(=O)N[C@@H](CCCNC(=N)N)C(=O)N[C@@H](CCCCN)C(=O)N[C@H](C(=O)N1CCC[C@H]1C(=O)NCC(=O)N[C@@H](CCCNC(=N)N)C(=O)N[C@@H](CC(C)C)C(=O)N[C@H](C(=O)O)C(C)C)C(C)C [Ac330] (H-GGPHCGYFATTKKLMRKVPGRLV-OH; N-terminus and C-terminus assumed)	–	MIC (A. baumannii (Table 8)): 20 µM (≈ 50.3 µg/mL); MBC [1]: 40 µM (≈ 101 µg/mL); MIC (μM) for non-amidated Peptide (non-amidated peptide, strongly inhibitory against A. baumannii (Table 7)): 20 µM
40 (≈ 71.8 µg/mL)	–	CC(C)C[C@H](NC(=O)[C@H](Cc1ccccc1)NC(=O)[C@H](CCCNC(=N)N)NC(=O)[C@H](CCCNC(=N)N)NC(=O)[C@H](CCCNC(=N)N)NC(=O)[C@H](CO)NC(=O)[C@H](CS)NC(=O)[C@@H](N)Cc1c[nH]c2ccccc12)C(=O)N[C@@H](C)C(=O)N[C@@H](CCCNC(=N)N)C(=O)N[C@@H](CS)C(=O)N[C@@H](Cc1c[nH]c2ccccc12)C(=O)N[C@@H](CCCNC(=N)N)C(=O)O [Ac496] (H-WCSRRRFLARCWR-OH; N-terminus and C-terminus assumed)	40 (≈ 71.8 µg/mL)	–
40 (≈ 118 µg/mL)	–	CC[C@H](C)[C@H](NC(=O)[C@H](CCC(N)=O)NC(=O)[C@H](CCCNC(=N)N)NC(=O)[C@@H](NC(=O)[C@@H](NC(=O)[C@@H]1CCCN1)C(C)C)C(C)C)C(=O)N[C@@H](CC(C)C)C(=O)N[C@@H](CCCNC(=N)N)C(=O)N[C@@H](CO)C(=O)N[C@@H](CCC(=O)O)C(=O)N[C@@H](Cc1c[nH]c2ccccc12)C(=O)N[C@@H](CCCNC(=N)N)C(=O)N[C@@H](CC(N)=O)C(=O)N[C@@H](Cc1c[nH]c2ccccc12)C(=O)N[C@@H](CCCNC(=N)N)C(=O)N[C@@H](CCCCN)C(=O)N[C@@H](CO)C(=O)N[C@@H](CC(C)C)C(=O)N[C@@H](CCC(=O)O)C(=O)N[C@@H](CCSC)C(=O)N[C@@H](CCCNC(=N)N)C(=O)NCC(=O)N[C@@H](CCCNC(=N)N)C(=O)O [Ac437] (H-PVVRQILRSEWRNWRKSLEMRGR-OH; N-terminus and C-terminus assumed)	–	–
20 (≈ 53.9 µg/mL)	20	CSCC[C@H](N)C(=O)NCC(=O)N[C@@H](CCCNC(=N)N)C(=O)N[C@@H](CC(C)C)C(=O)N[C@@H](CO)C(=O)NCC(=O)N[C@H](C(=O)N[C@@H](C)C(=O)N[C@@H](Cc1c[nH]c2ccccc12)C(=O)N[C@@H](CCCNC(=N)N)C(=O)N[C@@H](CCCNC(=N)N)C(=O)N[C@@H](CC(C)C)C(=O)N[C@@H](CO)C(=O)N[C@@H](CC(C)C)C(=O)N[C@@H](CCCNC(=N)N)C(=O)N[C@@H](Cc1c[nH]cn1)C(=O)N[C@@H](CS)C(=O)N[C@@H](CCC(=O)O)C(=O)N[C@@H](CS)C(=O)NCC(=O)N[C@@H](CCCNC(=N)N)C(=O)N[C@@H](CCCNC(=N)N)C(=O)N1CCC[C@H]1C(=O)O)C(C)C [Ac370] (H-MGRLSGVAWRRLSLRHCECGRRP-OH; N-terminus and C-terminus assumed)	20 (≈ 53.9 µg/mL)	–
50 (≈ 131 µg/mL)	–	CC[C@H](C)[C@H](NC(=O)[C@H](C)NC(=O)[C@H](Cc1c[nH]c2ccccc12)NC(=O)[C@H](CCCNC(=N)N)NC(=O)[C@H](CC(C)C)NC(=O)[C@H](CO)NC(=O)CNC(=O)[C@H](C)NC(=O)[C@H](CCCNC(=N)N)NC(=O)[C@H](Cc1c[nH]cn1)NC(=O)[C@H](CC(=O)O)NC(=O)[C@@H](NC(=O)[C@@H]1CCCN1C(=O)[C@H](CCCNC(=N)N)NC(=O)[C@@H]1CCCN1C(=O)[C@@H](N)CCCNC(=N)N)C(C)C)C(=O)N[C@@H](C)C(=O)N[C@@H](Cc1ccccc1)C(=O)N[C@@H](CCC(N)=O)C(=O)N[C@H](C(=O)N[C@@H](CO)C(=O)N[C@@H](CO)C(=O)N[C@@H](CC(C)C)C(=O)O)C(C)C [Ac469] (H-RPRPVDHRAGSLRWAIAFQVSSL-OH; N-terminus and C-terminus assumed)	–	bactericidal or bacteriostatic against A. baumannii: bacteriostatic; MBC (μM) [1]: bacteriostat

Reference: patent publication US20110262508A1, “ANTIMICROBIAL COMPOSITIONS, FORMULATIONS AND USES THEREOF” (priority 2007, published 2011)
